The values that follow come from patent publication US20120232162A1, “USE OF LUTEIN CONTAINING COMPOSITIONS TO IMPROVE CERTAIN ASPECTS OF MEMORY” (priority 2009, published 2012).

The subject of experiment [1] is primary culture of neurons. The experiment in a line: glutamate neurotoxicity paradigm in primary neuron culture (neurofilament network / neurite length). The format is cell-based. Conditions: lutein pre-treatment from day 5, 3 concentrations, n=6; 250 μM glutamate for 6 hours on day 12; glutamate control set as 100%; p<0.05 and <0.01. The source says:
Glutamate is one of the principal excitatory amino acid in the central nervous system, and as such plays a crucial role in normal physiology. Perturbations in normal regulatory mechanisms of glutamate functions may lead to excessive, neurotoxic activation of glutamate receptors in the brain, which may be detrimental to learning and memory performance in the normal and aging brain. Using a primary culture of neurons, these conditions can be reproduced by glutamate intoxication. Impact on cultured neurons was indicated by morphological changes in the neurofilament cytoskeleton network of the neurons.
Neuroprotective effects of single compounds and combinations of compounds were evaluated by analyzing network density using labelling with an anti-neurofilament antibody (heavy chain 200 kD) specific to mature neuron neurites.
Riluzole (a pharmacological neuroprotective agent) and MK801 were used as inhibitory compounds counteracting neurotoxic effects of glutamate resulting in outgrowth of neurites. Inhibitory MK801 (complete blockage of NMDA-type glutamate receptors) was powerful and led to 100% recovery after intoxication.
Neuroprotective functions of lutein were tested using the schedule shown below:
On day 5, the culture medium was replaced by control culture medium or medium containing lutein (3 concentrations) within physiological range, n=6 per concentration). […]

In experiment [2] the test system is mice. The experiment can be described thus: IntelliCage side discrimination paradigm (attention, associative learning and memory). The conditions noted are these: Lutein 9 mg/kg BW in feed, vs vehicle. The format is in vivo. From the text:
(§1) The cognitive performance of mice treated with lutein and/or zeaxanthin was compared with that of vehicle-treated, age-matched controls in the IntelliCage®, a system which enables automated monitoring of spontaneous and learning behavior of mice in a homecage-like environment (NewBehavior AG, Zurich, Switzerland, www.newbehavior.com; Galsworthy et al. 2005, Behav Brain Res 157: 211-217; Onishchenko et al. 2007, Toxicol Sci 97: 428-437, Mechan et al., 2009, J. Neurosci. Methods, 180:43-51). Individual mice are recognized by sensors within the IntelliCage corners reading a transponder (reference identification tag) which is implanted into the scruff of the mouse's neck.
Each IntelliCage® is essentially a large cage (37.5×55×20.5 cm), into which is placed a metal frame, comprising four recording (operant) chambers. The recording chambers fit into the corners of the cage, each covering a 15×15×21 cm right-angled triangular area of floor space. […]
This module was designed to test attention and associative memory. […] During this module the place errors (i.e. percentage of visits to incorrect corners) and side errors (i.e. percentage of nosepokes at the incorrect side of the correct corner) were recorded.

For experiment [3], the system named is mice. The experiment can be described thus: IntelliCage associative memory paradigm (negative reinforcement, stress). It is filed as in vivo.
From the text: as §1
(§2) Each IntelliCage® is essentially a large cage (37.5×55×20.5 cm), into which is placed a metal frame, comprising four recording (operant) chambers. The recording chambers fit into the corners of the cage, each covering a 15×15×21 cm right-angled triangular area of floor space. In-cage antennae enable automatic monitoring of each individual mouse's corner visits; photo-beams within each corner enable automated recording of individual nosepokes and licks of the water bottle spouts. Four triangular mouse shelters are placed in the center of the cage, above which is situated a food hopper, enabling ad libitum access to food.
Each recording chamber comprises: (1) a plastic ring (30 mm inner diameter) which serves as an entrance into the chamber and houses the circular antenna which registers corner visits; (2) a grid floor, which the mice sit on once they have entered the chamber; (3) two circular openings (13 mm diameter) which enable access to water bottle spouts; each opening is crossed by photo-beams which register nose-pokes; (4) two motorized doors, which allow (door open) or prohibit (door closed) access to the water bottle spouts; (5) two water bottles; (6) tubing, through which air-puffs can be delivered as aversive stimulation; (7) different colored light diodes, which can be used for conditioning experiments (Mechan et al., 2009 J Neurosci Methods 180:43-51). […]

Experiment [4] has as its system mice. The experiment can be described thus: IntelliCage place learning paradigm (spatial learning and memory). It is filed as in vivo. The conditions noted are these: Lutein 9 mg/kg BW in feed, vs placebo-fed littermates.
From the text: as §1
as §2, with “food. […]” for “food.”

The conditions of experiment [5]: lutein alone; chronic treatment (4 months); WO 2006/116755; cited from earlier work.
[6] abbreviates: second set of experiments, younger animals, intermediate lutein dose (of 8, 16 and 30 mg/kg/d), vs control group.

SMILES strings stand for the structures. “Also recorded” adds a separate entry of the source.

Regarding `CC1=C[C@H](O)CC(C)(C)[C@H]1/C=C/C(C)=C/C=C/C(C)=C/C=C/C=C(C)/C=C/C=C(C)/C=C/C1=C(C)C[C@@H](O)CC1(C)C` [lutein], the “protection of neurons from excitotoxic glutamate neuro-toxicity (neurite length)” value in experiment [1] is listed as “significantly protected”. Further, in the experiment with mice [2] (active phase), the “side error rate (percentage of nosepokes at the incorrect side of the correct corner)” value is given as “significantly lower”. Also, the “place error rate (percentage of visits to incorrect corners)” value in the experiment on mice [2] (active phase (first 12 h)) was “higher level of attention and an improved memory performance; also recorded: significantly lower”. Moreover, in the experiment on mice [3] (Lutein 9 mg/kg BW in feed, vs vehicle-treated littermates), the “learning and memorizing the correct place to access water under stressful conditions (air puff punishment)” value is given as “significantly better”. Further, in the experiment on mice [3] (setting [6]), the “performance in the associative memory task, place errors” value is reported as “significant improvement” and the “performance in the associative memory task, side errors” value is “significant improvement”. In addition, the “using spatial cues to find and memorize the location of water” value in the experiment on mice [4] was “significant improvement; also recorded: significantly better”. In experiment [5], the “Verbal Fluency test” value was “significant improvement” and the “other cognitive- or mood assessment-tests” value is recorded as “did not result in improvements”.
